The values that follow come from patent publication US9439906B2, “Dosing regimen associated with long acting injectable paliperidone esters” (Janssen Pharmaceutica NV, priority 2007, dated 2016).

Data set [1] in a line: Pharmacokinetic profile of gluteal versus deltoid i.m. injections of paliperidone palmitate 100 mg-eq. (four injections). It counts as in vivo, human. On the procedure: This study was performed to characterize and compare the pharmacokinetic profile of paliperidone palmitate (formulated as described above) following four intramuscular injections in the deltoid or gluteal muscle.
Plasma samples for pharmacokinetic analyses were collected.

Data set [2] is described as follows: Safety and local tolerability in the gluteal versus deltoid multiple-dose study. The following applies: for mean injection site pain VSA score: day 1, 8 hours after injection.
Data set [3] in a line: Pharmacokinetics in phase 3 study R092670-PSY-3007. It counts as in vivo, human. The following applies: Day 8, 3 dose groups. The protocol: Subjects without source documentation of previous exposure to at least 2 doses of oral risperidone or paliperidone extended-release (ER), at least 1 dose of i.m. RISPERDAL® CONSTA® or paliperidone palmitate, or who were not currently receiving an antipsychotic medication were given 4 to 6 days of paliperidone ER 6 mg/day (or the option of oral risperidone 3 mg/day for subjects in Malaysia) for tolerability testing. Subjects who had source documentation of previous exposure to the above medications and were currently taking another antipsychotic regimen continued their current treatment through Day-1. At the beginning of the double-blind treatment period, subjects were randomly assigned in a 1:1:1:1 ratio to 1 of 4 treatment groups: placebo or paliperidone palmitate 25 mg eq., 100 mg eq., or 150 mg eq. Study medication was administered as 4 doses: an initial i.m. injection of 150 mg eq. of paliperidone palmitate or placebo followed by 3 fixed i.m. doses of placebo or paliperidone palmitate [25, 100, or 150 mg eq.] on Days 8, 36, and 64. The initial injection of study medication was given in the deltoid muscle. Subsequent injections were given either in the deltoid or gluteal muscle at the discretion of the investigator. […] Efficacy and safety were evaluated regularly throughout the study. […]

Data set [4] is described as follows: Comparison of single-dose PK profile in the deltoid to that in the gluteal (summary of phase 1 studies). The class given is in vivo, human. The protocol: The plasma concentration-time profile of paliperidone after single i.m. injection of the paliperidone palmitate formulation at 25-150 mg-eq. has been documented in several studies (Table 4). Details of how the comparison of injection sites study and the dose proportionality studies were performed are provided in Examples 2 and 3.

The mark [5] stands for this setting: 100 mg-eq., combined injection sites.

Turning to `CCCCCCCCCCCCCCCC(=O)OC1CCCn2c1nc(C)c(CCN1CCC(c3noc4cc(F)ccc34)CC1)c2=O` (racemic) [paliperidone palmitate, (±)-3-[2-[4-(6-fluoro-1,2-benzisoxazol-3-yl)-1-piperidinyl]ethyl]-6,7,8,9-tetrahydro-2-methyl-4-oxo-4H-pyrido[1,2-α]pyrimidin-9-yl hexadecanoate], the “median AUC∞, deltoid versus gluteal” value in data set [1] (after four injections) is recorded as “similar”. Further, the “Relative exposure after the fourth injection versus after the second injection” value in data set [1] (both deltoid and gluteal) is given as “slightly lower”. Moreover, in data set [2] (setting [5]), the “adverse event: diastolic hypotension” value is on record as 12%, the “adverse event: hypotension” value worked out at 14%, the “adverse event: injection site pain” value came out at 14% and the “adverse event: orthostatic hypotension” value turned out to be 24%. In data set [2] (100 mg-eq., four injections), the “deaths in the study” value is reported as “no deaths”, the “serious adverse events (worsening of psychosis) that led to discontinuations” value is given as “four” and the tolerability result is “well tolerated”. In data set [2] (deltoid), the “mean injection site pain VSA score” value is reported as 10.8. Further, in data set [2] (gluteal), the “mean injection site pain VSA score” value is reported as 3.3. For the same compound, the “median paliperidone plasma concentrations in high BMI compared to low BMI (<25 kg/m^2) subjects” value in data set [3] is recorded as “lower”. Further, in data set [4] (both injection sites, doses greater than 50 mg eq.), the “increase in Cmax versus dose” value is “slightly less than dose proportional”. In addition, the “median apparent half-life between injection sites” value in data set [4] (single dose, deltoid vs gluteal) is recorded as “comparable”. For the same compound, the “total exposure (AUC∞) of paliperidone versus dose” value in data set [4] (single-dose 25 to 150 mg eq., deltoid and gluteal) is “increased proportionally with dose”.
